Measured values: patent US10993951B2, “Fosfomycin formulation for parenteral administration” (priority 2016, dated 2021)
Converted amounts (≈) assume the structure as drawn. Like-named read-outs stand apart in the source and are kept apart here.

Tests used:
Format in all cases: cell-based
[1] = test system: Staphylococcus aureus ATTC 49775; test: MIC by tube dilution in microtiter plates, stored fosfomycin solution; details: read-out: minimal inhibitory concentration (MIC)
Excerpt: (§1) The objective of the present investigation was to find out whether the antimicrobial activity of fosfomycin with a pH suitable for intravenous administration is maintained in a solvent suitable for intravenous use. For this, fosfomycin disodium (14.5 mmol sodium/g) and succinic acid were used to adjust the pH (0.025 grams of succinic acid per gram of fosfomycin).
(§2) A stock solution of 4 g of fosfomycin disodium and succinic acid (0.025 grams of succinic acid per gram of fosfomycin, corresponding to about 3 g of fosfomycin) in 10 ml distilled water was prepared and divided into 5 cryotubes at 2 ml each, and the solution was exposed at different temperatures as follows:
(§3) Aliquots of 2 ml of the sample were stored at −80° C., at refrigerator temperature (2-8° C.), at room temperature (20-25° C.), and at 45-65° C. until the test end. Another 2 ml of the stock solution were stored at refrigerator temperature (2-8° C.) and autoclaved before the tests at 125° C. for 30 minutes. After that, all samples were tested for their antimicrobioal activity.
(§4) To determine the antimicrobial activity of fosfomycin, the minimal inhibitory concentration (MIC) of the 4 mentioned bacteria strains was determined by a tube dilution method in microtiter plates using Mueller-Hinton broth. For the inoculation of the microtiter plates, the inoculum was adjusted to 1.5×104 germs/ml. The evaluation was made after 24 hours of incubation at 37° C.
(§5) Samples were taken, starting with 2,000 μg/ml test substance, diluted by a factor 2. Serial dilutions of 2,000 μg/ml to […] were prepared.

[2] = test system: Escherichia coli AG 1215; test: as above; details: read-out: minimal inhibitory concentration (MIC)
Excerpt: as §1, §2, §3, §4, §5

[3] = test system: Staphylococcus aureus ATTC 33592; test: as above; details: read-out: minimal inhibitory concentration (MIC)
[4] = test system: tested bacteria such as Staphylococcus and Escherichia; test: Stability studies: antimicrobial activity kept on storage; details: aqueous solution with an acid; after repeated autoclaving at 125° C. and months of storage
Excerpt: as §1, §2, §3
as §4, with “The evaluation was made after 24 hours of incubation at 37° C.” left out

[5] = test system: Staphylococcus aureus ATTC 49775; test: MIC by tube dilution in microtiter plates, stored fosfomycin solution; details: read-out: minimal inhibitory concentration (MIC); remark: listed apart in the source

MIC ([1]; ATTC49775, 0 h, storage temp. 20-25 °C, storage period 0 days): 3.9 µg/mL (≈ 28.2 µM)
MIC ([1]; ATTC49775, 0 h, storage temp. 45-65 °C, storage period 0 days): 7.8 µg/mL (≈ 56.5 µM)
MIC ([1]; ATTC49775, 0 h, storage temp. −80 °C, storage period 0 days): 7.8 µg/mL (≈ 56.5 µM)
MIC ([1]; ATTC49775, 125 °C (refrigerator storage, autoclaved 30 minutes before tests), storage period 0 days): 15.6 µg/mL (≈ 113 µM)
MIC ([1]; ATTC49775, 125 °C (refrigerator storage, autoclaved 30 minutes before tests), storage period 19 days): 7.8 µg/mL (≈ 56.5 µM)
MIC ([1]; ATTC49775, 125 °C (refrigerator storage, autoclaved 30 minutes before tests), storage period 31 days): 7.8 µg/mL (≈ 56.5 µM)
MIC ([1]; ATTC49775, 456 h, storage temp. 20-25 °C, storage period 19 days): 15.6 µg/mL (≈ 113 µM)
MIC ([1]; ATTC49775, 456 h, storage temp. 45-65 °C, storage period 19 days): 7.8 µg/mL (≈ 56.5 µM)
MIC ([1]; ATTC49775, 456 h, storage temp. −80 °C, storage period 19 days): 3.9 µg/mL (≈ 28.2 µM)
MIC ([1]; ATTC49775, storage temp. 20-25 °C, storage period 31 days): 15.6 µg/mL (≈ 113 µM)
MIC ([1]; ATTC49775, storage temp. 45-65 °C, storage period 31 days): 7.8 µg/mL (≈ 56.5 µM)
MIC ([1]; ATTC49775, storage temp. −80 °C, storage period 31 days): 3.9 µg/mL (≈ 28.2 µM)
MIC ([2]; AG1215, 0 h, storage temp. 4-8 °C, storage period 0 days): 62.5 µg/mL (≈ 453 µM)
MIC ([2]; AG1215, 0 h, storage temp. 20-25 °C, storage period 0 days): 250 µg/mL (≈ 1810 µM)
MIC ([2]; AG1215, 0 h, storage temp. 45-65 °C, storage period 0 days): 62.5 µg/mL (≈ 453 µM)
MIC ([2]; AG1215, 0 h, storage temp. −80 °C, storage period 0 days): 62.5 µg/mL (≈ 453 µM)
MIC ([2]; AG1215, 125 °C (refrigerator storage, autoclaved 30 minutes before tests), storage period 0 days): 125 µg/mL (≈ 905 µM)
MIC ([2]; AG1215, 125 °C (refrigerator storage, autoclaved 30 minutes before tests), storage period 19 days): 125 µg/mL (≈ 905 µM)
MIC ([2]; AG1215, 125 °C (refrigerator storage, autoclaved 30 minutes before tests), storage period 27 days): 62.5 µg/mL (≈ 453 µM)
MIC ([2]; AG1215, 125 °C (refrigerator storage, autoclaved 30 minutes before tests), storage period 59 days): 31.2 µg/mL (≈ 226 µM)
MIC ([2]; AG1215, 125 °C (refrigerator storage, autoclaved 30 minutes before tests), storage period 64 days): 62.5 µg/mL (≈ 453 µM)
MIC ([2]; AG1215, 125 °C (refrigerator storage, autoclaved 30 minutes before tests), storage period 92 days): 125 µg/mL (≈ 905 µM)
MIC ([2]; AG1215, 456 h, storage temp. 4-8 °C, storage period 19 days): 62.5 µg/mL (≈ 453 µM)
MIC ([2]; AG1215, 456 h, storage temp. 20-25 °C, storage period 19 days): 125 µg/mL (≈ 905 µM)
MIC ([2]; AG1215, 456 h, storage temp. 45-65 °C, storage period 19 days): 250 µg/mL (≈ 1810 µM)
MIC ([2]; AG1215, 456 h, storage temp. −80 °C, storage period 19 days): 125 µg/mL (≈ 905 µM)
MIC ([2]; AG1215, 648 h, storage temp. 20-25 °C, storage period 27 days): 31.2 µg/mL (≈ 226 µM)
MIC ([2]; AG1215, 648 h, storage temp. 45-65 °C, storage period 27 days): 31.2 µg/mL (≈ 226 µM)
MIC ([2]; AG1215, 648 h, storage temp. −80 °C, storage period 27 days): 62.5 µg/mL (≈ 453 µM)
MIC ([2]; AG1215, storage temp. 4-8 °C, storage period 92 days): 62.5 µg/mL (≈ 453 µM)
MIC ([2]; AG1215, storage temp. 20-25 °C, storage period 59 days): 31.2 µg/mL (≈ 226 µM)
MIC ([2]; AG1215, storage temp. 20-25 °C, storage period 64 days): 31.2 µg/mL (≈ 226 µM)
MIC ([2]; AG1215, storage temp. 20-25 °C, storage period 92 days): 125 µg/mL (≈ 905 µM)
MIC ([2]; AG1215, storage temp. 45-65 °C, storage period 59 days): 62.5 µg/mL (≈ 453 µM)
MIC ([2]; AG1215, storage temp. 45-65 °C, storage period 64 days): 62.5 µg/mL (≈ 453 µM)
MIC ([2]; AG1215, storage temp. 45-65 °C, storage period 92 days): 125 µg/mL (≈ 905 µM)
MIC ([2]; AG1215, storage temp. −80 °C, storage period 59 days): 15.6 µg/mL (≈ 113 µM)
MIC ([2]; AG1215, storage temp. −80 °C, storage period 64 days): 62.5 µg/mL (≈ 453 µM)
MIC ([2]; AG1215, storage temp. −80 °C, storage period 92 days): 62.5 µg/mL (≈ 453 µM)
MIC ([3]; ATTC33592, 0 h, storage temp. 4-8 °C, storage period 0 days): 15.6 µg/mL (≈ 113 µM)
MIC ([3]; ATTC33592, 456 h, storage temp. 4-8 °C, storage period 19 days): 7.8 µg/mL (≈ 56.5 µM)
MIC ([3]; ATTC33592, storage temp. 4-8 °C, storage period 31 days): 3.9 µg/mL (≈ 28.2 µM)
MIC ([5]; ATTC49775, 0 h, storage temp. 4-8 °C, storage period 0 days): 7.8 µg/mL (≈ 56.5 µM)
MIC ([5]; ATTC49775, 456 h, storage temp. 4-8 °C, storage period 19 days): 3.9 µg/mL (≈ 28.2 µM)
MIC ([5]; ATTC49775, storage temp. 4-8 °C, storage period 31 days): 3.9 µg/mL (≈ 28.2 µM)
Compound: C[C@@H]1O[C@@H]1P(=O)(O)O [Fosfomycin, fosfomycin]
effectiveness against the tested bacteria after storage [4]: effective
